Results: patent US11241437B2, “Heterocyclic compounds, preparation methods and uses thereof” (InventisBio Co., Ltd., priority 2019, dated 2022)
Values after ≈ are worked out from the molar mass of the structure shown. Like-named read-outs stand apart in the source and are kept apart here.

What was measured:
Type in all cases: physicochemical
[1] = Interconversion studies of solid forms of Compound 1 (slurry); conditions: water or MeOH/water (1/4) at RT and 50° C. for 3 days
Protocol: Interconversion Studies: Equal amounts (˜7 mg) of Form I, II and III were mixed together and then suspended in 0.5 mL of different solvents at room temperature or 50° C., respectively. Residual solids were collected by filtration and characterized at appropriate time. Additionally, Form IV (˜12 mg) was slurried in 0.5 ml, water or MeOH/water (1/4) at RT or 50° C. for 3 days. Residual solids were collected by filtration and analyzed by XRPD.

[2] = Polymorph characterization summary of Compound 1 forms (form stability)
Description: In the polymorph screening, five XRPD Patterns (FIG. 11) were generated, and four forms were identified including 2 anhydrates and 2 hydrates.

[3] = Dynamic moisture sorption analysis (DVS) of Form IV of Compound 1
Protocol: Method 1. Used for studies with solid state of Compound 1. Moisture sorption/desorption data was collected on a DVS Intrinsic (SMS, UK). The sample was placed into a tared sample chamber and automatically weighed. The sample was dried at 40° C. until the dm/dt was less than 0.002% and cooled to 25° C. Set the instrument parameters as below.

[4] = Stability studies of Form IV of Compound 1 (HPLC and XRPD)
Protocol: Method 1. a representative HPLC method is shown below, which can be used, for example, to analyze the purity, solubility, and stability of Compound 1 herein.
Stability Studies: Appropriate amounts of Form IV were put at 40° C./75% RH, 60° C. and 25±2° C./92.5% RH conditions for 14 days. Then the sample was tested by HPLC and XRPD to determine the chemical and physical stability.

[5] = Mechanical stability (grinding) of Form IV of Compound 1; conditions: ground for 2 and 5 min
Protocol: Form IV was also tested for mechanical stability. In this case, appropriate amount of Form IV was ground for 2 and 5 min, and then tested by XRPD to check the crystal form.

[6] = Solubility of Compound 1 solid forms in bio-relevant media and water
Protocol: Solubility Studies: Solubility of Form IV was tested in three bio-relevant media (Simulated Gastric Fluid (SGF), Fasted State Simulated Intestinal Fluid (FaSSIF), and Fed State Simulated Intestinal Fluid (FeSSIF)) and water. […] Form IV (˜10 mg) was weighed into 2 mL of four media to make suspensions respectively, and about 10 mg of the amorphous starting material was also added into 2 mL of FaSSIF. Then all suspensions were shaken at 37° C. with 200 rpm for up to 24 hours. At 0.5, 2 and 24 hours, about 0.7 mL of each suspension was filtered. The filtrate was analyzed by HPLC and pH meter, and the residual solids were also checked by XRPD at 24 hours.

## C=CC(=O)N1C[C@H](C)N(c2nc(=O)n(-c3c(C4CC4)ncnc3C3CC3)c3nc(-c4c(N)cccc4F)c(Cl)cc23)C[C@H]1C [Form IV]
[1]
  Form after slurry in aqueous systems (XRPD): remained unchanged
[2]
  Stability of the solid form: Stable form, slightly
[3]
  Crystal form after DVS testing: remained unchanged
[3]; 25° C.
  Hygroscopicity (DVS): slightly hygroscopic
[3]; at 80% RH, 25° C.
  Water uptake (DVS): about 1.37%
[4]; 40° C./75% RH, 7 D
  Purity: 98.21 Area %
[4]; 40° C./75% RH, 14 D
  Purity: 98.12 Area %
[4]; 40° C./75% RH, 60° C. and 25° C./92.5% RH, 14 days
  Physical stability, XRPD: XRPD remained unchanged
[4]; 60° C. for 2 weeks
  Chemical stability, impurities: a new impurity was detected
[4]; 60° C., 7 D
  Purity: 97.98 Area %
[4]; 60° C., 14 D
  Purity: 97.88 Area %
[4]; initial, before storage
  Purity-initial: 98.30 Area %
[5]
  Crystal form after grinding (XRPD): no new form was generated
[6]; FaSSIF, 37° C., 0.5 h
  Solubility: 17 µg/mL (≈ 27.6 µM)
[6]; FaSSIF, 37° C., 2 h
  Solubility: 16 µg/mL (≈ 26 µM)
[6]; FaSSIF, 37° C., 24 h
  Solubility: 21 µg/mL (≈ 34.1 µM)
  XRPD-24 h of residual solids: unchanged
[6]; FaSSIF, time point not stated
  Solubility in FaSSIF: 20 µg/mL (≈ 32.5 µM)
[6]; FeSSIF, 37° C., 24 h
  XRPD-24 h of residual solids: unchanged
[6]; FeSSIF, 37 °C, thermodynamic from solid, 0.5 h
  solubility at 0.5 h: 37 µg/mL (≈ 60.2 µM)
[6]; FeSSIF, 37 °C, thermodynamic from solid, 2 h
  solubility at 2 h: 37 µg/mL (≈ 60.2 µM)
[6]; FeSSIF, 37 °C, thermodynamic from solid, 24 h
  solubility at 24 h: 62 µg/mL (≈ 101 µM)
[6]; SGF, 37° C., 24 h
  XRPD-24 h of residual solids: unchanged
[6]; SGF, 37 °C, simulated gastric fluid, thermodynamic from solid, 0.5 h
  solubility at 0.5 h: 36 µg/mL (≈ 58.5 µM)
[6]; SGF, 37 °C, simulated gastric fluid, thermodynamic from solid, 2 h
  solubility at 2 h: 34 µg/mL (≈ 55.3 µM)
[6]; SGF, 37 °C, simulated gastric fluid, thermodynamic from solid, 24 h
  solubility at 24 h: 36 µg/mL (≈ 58.5 µM)
[6]; SGF, FeSSIF, water, 37 °C, thermodynamic from solid, media other than FaSSIF (SGF, FeSSIF, water), read-out: Solubility in other media
  Solubility: < 70 µg/mL
[6]; Water, 37° C., 24 h
  XRPD-24 h of residual solids: unchanged
[6]; water, 37 °C, thermodynamic from solid, 0.5 h
  solubility at 0.5 h: 14 µg/mL (≈ 22.8 µM)
[6]; water, 37 °C, thermodynamic from solid, 2 h
  solubility at 2 h: 11 µg/mL (≈ 17.9 µM)
[6]; water, 37 °C, thermodynamic from solid, 24 h
  solubility at 24 h: 9 µg/mL (≈ 14.6 µM)
